Among the test systems are HT29 colon; SK-OV-3 ovarian; T-47D breast; NCI-H522 lung; ACHN renal; SK-MEL-28 melanoma; A498 renal; HCT-15 colon; NCI-H460 lung; DU-145 prostate; MDA-MB-231 breast; UACC-257 melanoma; NCI-H226 lung; SN12C renal; MDA-MB-435; SR leukemia; CAKI-1 renal; OVCAR-8 ovarian; BT-549 breast; 786-0 renal.
Experiment in all cases: NCI anticancer screen, dose series, 48 h

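A five-concentration, 48-hour dose response in 96-well plates underlies each endpoint, interpolated linearly between surrounding concentrations. Definition used: TGI = concentration required for complete inhibition of growth.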

For the molecule `CC(=O)O[C@H]1C[C@H]2[C@@H]([C@H](OC(C)=O)C[C@@H]3CC4(CC[C@@]32C)OOC2(CCCCC2)OO4)[C@@H]2CC[C@H]([C@H](C)CCC(=O)O)[C@@]12C`, the TGI in the assay on HT29 colon came to 25.3 µM; with SK-OV-3 ovarian, 26.9 µM; with T-47D breast, 45.7 µM; in the assay on NCI-H522 lung, 9.36 µM; in the assay on ACHN renal, 20.3 µM; in the assay on SK-MEL-28 melanoma, 24 µM. Also, the TGI in the assay on A498 renal was 27.1 µM; with HCT-15 colon, 17 µM; with NCI-H460 lung, 21.6 µM; in the assay on DU-145 prostate, 31.6 µM; in the assay on MDA-MB-231 breast it was 34.1 µM; in the assay with UACC-257 melanoma, 25 µM. In addition, the TGI came to 31.6 µM with NCI-H226 lung; 20.7 µM in the assay on SN12C renal; 18.9 µM with MDA-MB-435; 8.3 µM in the assay on SR leukemia; 25.3 µM in the assay on CAKI-1 renal; 16.1 µM in the assay on OVCAR-8 ovarian. In addition, the TGI in the assay with BT-549 breast was found to be 17.3 µM; in the assay on 786-0 renal, 24 µM.

As to `N#Cc1c(N)nc2n[nH]c(N)c2c1-c1ccccc1`, the TGI amounted to 57.7 µM in the assay on HT29 colon; 20.4 µM with SK-OV-3 ovarian; 3.9 µM in the assay on T-47D breast; 18 µM with NCI-H522 lung; 28.9 µM in the assay with ACHN renal; 77.2 µM in the assay with SK-MEL-28 melanoma. Also, the TGI is 5.77 µM with A498 renal; greater than 77.8 µM in the assay on HCT-15 colon; greater than 53.2 µM with NCI-H460 lung; 54.2 µM with DU-145 prostate; 38.7 µM in the assay with MDA-MB-231 breast; greater than 83.6 µM with UACC-257 melanoma. In addition, the TGI with NCI-H226 lung was greater than 79 µM; in the assay on SN12C renal it was 31.8 µM; in the assay with MDA-MB-435 it was 36.1 µM; with SR leukemia it was greater than 60.1 µM; with CAKI-1 renal it was 19.4 µM; in the assay with OVCAR-8 ovarian, 41.8 µM. Moreover, the TGI in the assay with BT-549 breast is 40.2 µM; with 786-0 renal, 69.8 µM.

`O=C1Nc2ccccc2C1S(=O)(=O)c1ccccc1` (stereo not given): the TGI in the assay with HT29 colon, in the assay on SK-OV-3 ovarian, in the assay with T-47D breast, with NCI-H522 lung, in the assay with ACHN renal and in the assay on SK-MEL-28 melanoma was greater than 100 µM throughout. Also, the TGI in the assay with A498 renal, in the assay with HCT-15 colon, in the assay with NCI-H460 lung, in the assay on DU-145 prostate, in the assay with MDA-MB-231 breast and in the assay with UACC-257 melanoma was greater than 100 µM in each case. Also, the TGI in the assay with NCI-H226 lung, in the assay with SN12C renal, in the assay on MDA-MB-435, in the assay on SR leukemia, with CAKI-1 renal and in the assay on OVCAR-8 ovarian was greater than 100 µM throughout. Moreover, the TGI with BT-549 breast and in the assay on 786-0 renal was greater than 100 µM throughout.

Take `CCCCC1Cc2cc(OC)ccc2-c2n1c1cc(OC)ccc1[n+]2C` (stereo not given) (tested in a mixture with another compound): the TGI in the assay with HT29 colon is greater than 29.2 µM; in the assay on SK-OV-3 ovarian, 54.1 µM; with T-47D breast, 45.1 µM; with NCI-H522 lung, 6.85 µM; in the assay on ACHN renal, 48 µM; in the assay on SK-MEL-28 melanoma, 25.8 µM. Further, the TGI in the assay on A498 renal is 83.2 µM; in the assay with HCT-15 colon it was greater than 56.7 µM; in the assay on NCI-H460 lung, 18.1 µM; in the assay on DU-145 prostate it was greater than 64.1 µM; in the assay with MDA-MB-231 breast, 20.6 µM; in the assay with UACC-257 melanoma, greater than 34.3 µM. Also, the TGI in the assay with NCI-H226 lung is 24.2 µM; with SN12C renal it was 7.97 µM; with MDA-MB-435, 3.79 µM; in the assay on SR leukemia, 12.1 µM; in the assay on CAKI-1 renal it was greater than 100 µM; with OVCAR-8 ovarian it was 49 µM. Further, the figures for the TGI in the assay with BT-549 breast and in the assay with 786-0 renal were 79 µM and greater than 100 µM, respectively.

For `C=C1C(=O)O[C@@H]2[C@H]1C[C@H](I)[C@@]1(C)CC[C@H](O1)[C@](C)(I)CCCC(C)[C@@H]2O` (stereo not given in full), the TGI in the assay with HT29 colon turned out to be 4.61 µM; in the assay on SK-OV-3 ovarian it was 30.7 µM; in the assay on T-47D breast, 12.7 µM; in the assay on NCI-H522 lung, 1.59 µM; in the assay on ACHN renal, 3.71 µM; with SK-MEL-28 melanoma, 17.6 µM. Also, the TGI with A498 renal turned out to be 28.1 µM; with HCT-15 colon, 4.57 µM; in the assay with NCI-H460 lung, 28.6 µM; in the assay on DU-145 prostate it was 13.6 µM; with MDA-MB-231 breast, 16.3 µM; in the assay with UACC-257 melanoma, 20.1 µM. The TGI in the assay on NCI-H226 lung amounted to 3.85 µM; in the assay with SN12C renal, 17.7 µM; in the assay with MDA-MB-435, 11.6 µM; with SR leukemia, 9.41 µM; in the assay with CAKI-1 renal, 4.19 µM; in the assay on OVCAR-8 ovarian, 8.12 µM. In addition, the TGI in the assay on BT-549 breast came out at 20.9 µM; in the assay on 786-0 renal, 2.84 µM.

In the case of `CCCCCC(/C=C/[C@@H]1[C@@H](C(O)CCCCCC(=O)OC)C(=O)C[C@H]1O[Si](C)(C)C(C)(C)C)OCOCCOC` (stereo not given in full), the TGI in the assay on HT29 colon came out at 18.8 µM; with SK-OV-3 ovarian, 34 µM; with T-47D breast it was 51.8 µM; in the assay with NCI-H522 lung, 14.5 µM; in the assay on ACHN renal, 28.6 µM; in the assay on SK-MEL-28 melanoma, 33.3 µM. For the same molecule, the TGI was 42.7 µM in the assay on A498 renal; 27.5 µM in the assay with HCT-15 colon; greater than 100 µM in the assay on NCI-H460 lung; 36.9 µM in the assay on DU-145 prostate; 44.1 µM in the assay on MDA-MB-231 breast; 21.9 µM in the assay on UACC-257 melanoma. Moreover, the TGI was 34.9 µM in the assay with NCI-H226 lung; 45.7 µM in the assay on SN12C renal; 27.9 µM in the assay with MDA-MB-435; greater than 31.6 µM in the assay with SR leukemia; 32.2 µM in the assay on CAKI-1 renal; 42.8 µM in the assay on OVCAR-8 ovarian. The TGI with BT-549 breast turned out to be 24.8 µM; in the assay with 786-0 renal, 31.6 µM.

Source of the values: PubChem BioAssay (NCI).
